Consider 31 compounds from ChEMBL document CHEMBL1158373, “GRIND-based 3D-QSAR and CoMFA to investigate topics dominated by hydrophobic interactions: the case of hERG K+ channel blockers” (Eur J Med Chem, 2009).

Sequence of hERG (KCNH2) (Q12809 whole entry): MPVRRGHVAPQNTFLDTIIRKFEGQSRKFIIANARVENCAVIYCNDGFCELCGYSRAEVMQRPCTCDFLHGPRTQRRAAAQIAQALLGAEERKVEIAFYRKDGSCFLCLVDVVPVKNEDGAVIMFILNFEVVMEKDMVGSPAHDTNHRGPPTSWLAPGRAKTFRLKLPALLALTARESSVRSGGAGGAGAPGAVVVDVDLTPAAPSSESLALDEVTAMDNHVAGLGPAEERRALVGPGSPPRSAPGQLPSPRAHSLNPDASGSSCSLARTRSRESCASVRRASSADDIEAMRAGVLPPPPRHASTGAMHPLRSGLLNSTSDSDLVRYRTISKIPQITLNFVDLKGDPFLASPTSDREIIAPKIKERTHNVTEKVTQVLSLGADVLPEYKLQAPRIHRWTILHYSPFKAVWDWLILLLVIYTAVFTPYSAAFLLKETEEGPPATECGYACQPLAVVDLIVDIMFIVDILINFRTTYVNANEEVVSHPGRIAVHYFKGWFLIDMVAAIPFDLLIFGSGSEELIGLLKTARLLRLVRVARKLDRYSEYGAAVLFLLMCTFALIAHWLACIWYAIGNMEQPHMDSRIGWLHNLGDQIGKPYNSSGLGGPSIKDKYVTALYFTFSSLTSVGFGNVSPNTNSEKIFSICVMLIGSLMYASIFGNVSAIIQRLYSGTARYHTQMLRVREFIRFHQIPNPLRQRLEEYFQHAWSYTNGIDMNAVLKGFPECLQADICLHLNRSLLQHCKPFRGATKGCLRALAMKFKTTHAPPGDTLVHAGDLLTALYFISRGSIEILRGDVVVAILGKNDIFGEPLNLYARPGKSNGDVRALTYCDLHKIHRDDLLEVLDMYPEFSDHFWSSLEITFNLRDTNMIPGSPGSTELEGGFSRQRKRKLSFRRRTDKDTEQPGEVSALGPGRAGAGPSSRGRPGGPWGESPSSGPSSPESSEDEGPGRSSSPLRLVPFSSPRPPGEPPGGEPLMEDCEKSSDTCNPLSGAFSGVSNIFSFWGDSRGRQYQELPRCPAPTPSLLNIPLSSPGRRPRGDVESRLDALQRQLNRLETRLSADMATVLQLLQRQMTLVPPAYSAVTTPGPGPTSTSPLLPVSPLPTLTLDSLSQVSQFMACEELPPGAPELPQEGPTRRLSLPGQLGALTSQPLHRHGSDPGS

System in one data set: not listed separately
Description: Lipophilicity, log D at pH 7.0. To be noted: buffer.
Turning to `O=C(O[C@@H]1C[C@@H]2C[C@H]3C[C@H](C1)N2CC3=O)c1c[nH]c2ccccc12` [DOLASETRON], the pH-dependent lipophilicity (logD) came to 2.6.

In turn, `COc1ccc([C@@H]2Sc3ccccc3N(CCN(C)C)C(=O)[C@@H]2OC(C)=O)cc1` [DILTIAZEM] came in with a pH-dependent lipophilicity (logD) of 1.62.

Compound `C1CCC(C(CC2CCCCN2)C2CCCCC2)CC1` (stereo not given) [PERHEXILINE] returned a logD of 2.81. Same read-out and setting: then `O=c1[nH]c2ccccc2n1C1CCN(CCCC(c2ccc(F)cc2)c2ccc(F)cc2)CC1` [PIMOZIDE], with 5.11; and `O=C1Cc2cc(CCN3CCN(c4nsc5ccccc45)CC3)c(Cl)cc2N1` [ZIPRASIDONE], with 3.93; and `Cc1c(F)c(N2CCNC(C)C2)cc2c1c(=O)c(C(=O)O)cn2C1CC1` (stereo not given) [GREPAFLOXACIN], with -1.47. As for `CN(c1nccc(=O)[nH]1)C1CCN(c2nc3ccccc3n2Cc2ccc(F)cc2)CC1` [MIZOLASTINE], the log distribution coefficient (logD) is 1.96. The compound `CN(C)CCC=C1c2ccccc2CCc2ccccc21` [AMITRIPTYLINE] came in with a logD of 3.33.

The compound `C[C@@H]1CN(c2c(F)c(N)c3c(=O)c(C(=O)O)cn(C4CC4)c3c2F)C[C@H](C)N1` [SPARFLOXACIN] gave a pH-dependent lipophilicity (logD) of -3.4. Same read-out and setting: then `CCCc1nn(C)c2c(=O)[nH]c(-c3cc(S(=O)(=O)N4CCN(C)CC4)ccc3OCC)nc12`, with 2.29.

Turning to `Cc1nc2n(c(=O)c1CCN1CCC(c3noc4cc(F)ccc34)CC1)CCCC2` [RISPERIDONE], the pH-dependent lipophilicity (logD) worked out at 0.71. The same measure, in the same setting: under `O=C(CCCN1CCC(O)(c2ccc(Cl)cc2)CC1)c1ccc(F)cc1` [HALOPERIDOL] stands 1.82; under `CN(CCOc1ccc(NS(C)(=O)=O)cc1)CCc1ccc(NS(C)(=O)=O)cc1` [DOFETILIDE], 0.68; under `COc1cc(N)c(Cl)cc1C(=O)NC1CCN(CCCOc2ccc(F)cc2)CC1OC` (stereo not given) [CISAPRIDE], 2.05.

With `O=C(CCCN1CC=C(n2c(=O)[nH]c3ccccc32)CC1)c1ccc(F)cc1` [DROPERIDOL], the logD came out at 2.25. On to `COc1ccc(CCN2CCC(Nc3nc4ccccc4n3Cc3ccc(F)cc3)CC2)cc1` [ASTEMIZOLE], for which the logD was found to be 4.14. As for `CN(C)CCCN1c2ccccc2Sc2ccc(Cl)cc21` [CHLORPROMAZINE], the log distribution coefficient (logD) was determined as 2.99.

The compound `COCC(=O)O[C@]1(CCN(C)CCCc2nc3ccccc3[nH]2)CCc2cc(F)ccc2[C@@H]1C(C)C` [MIBEFRADIL] registered a pH-dependent lipophilicity (logD) of 1.96. As for `COC(=O)[C@H]1[C@@H](OC(=O)c2ccccc2)C[C@@H]2CC[C@H]1N2C` [COCAINE], the logD worked out at 0.41. The same measure, in the same setting: then `CN1CCN(CCCCN2C(=O)CN(/N=C/c3ccc(-c4ccc(Cl)cc4)o3)C2=O)CC1` [AZIMILIDE], with 2.05. As to `CC(C)COCC(CN(Cc1ccccc1)c1ccccc1)N1CCCC1` (stereo not given) [BEPRIDIL], the log distribution coefficient (logD) is 4.49. Same read-out and setting: then `CN1C2CCCC1CC(NC(=O)c1nn(C)c3ccccc13)C2` (stereo not given) [GRANISETRON], with -1.72; and `CSc1ccc2c(c1)N(CCC1CCCCN1C)c1ccccc1S2` (stereo not given) [THIORIDAZINE], with 3.83; and `Fc1ccc(Cn2c(NC3CCNCC3)nc3ccccc32)cc1` [TECASTEMIZOLE], with 0.16. In turn, `CCCCN(CCCC)CCC(O)c1cc2c(Cl)cc(Cl)cc2c2cc(C(F)(F)F)ccc12` (stereo not given) [HALOFANTRINE] came in with a logD of 5.68.

On to `CN1CCN(C2=Nc3cc(Cl)ccc3Nc3ccccc32)CC1` [CLOZAPINE], for which the log distribution coefficient (logD) is 4.41. On the same count and under the same terms, under `O=c1[nH]c2ccccc2n1CCCN1CCC(n2c(=O)[nH]c3cc(Cl)ccc32)CC1` [DOMPERIDONE] stands 3.15; under `COc1c(N2CCNC(C)C2)c(F)cc2c(=O)c(C(=O)O)cn(C3CC3)c12` (stereo not given) [GATIFLOXACIN], -2.96. On the same count and under the same terms, then `COc1ccc(Cl)cc1C(=O)NCCc1ccc(S(=O)(=O)NC(=O)NC2CCCCC2)cc1` [GLYBURIDE], with 2.23; and `O=C1NCCN1CCN1CCC(c2cn(-c3ccc(F)cc3)c3ccc(Cl)cc23)CC1` [SERTINDOLE], with 2.65; and `CC(C)(C)c1ccc(C(O)CCCN2CCC(C(O)(c3ccccc3)c3ccccc3)CC2)cc1` (stereo not given) [TERFENADINE], with 4.11.

Another data set addresses hERG (KCNH2) (Homo sapiens, UniProt Q12809). Briefly: (§1) Inhibition of human ERG in MCF7 cells. To be noted: human, mcf7.
`CN1CCN(CCCCN2C(=O)CN(/N=C/c3ccc(-c4ccc(Cl)cc4)o3)C2=O)CC1` [AZIMILIDE] had a 50% inhibitory concentration (IC50) of 562 nM.

A further data set deals with Voltage-gated inwardly rectifying potassium channel KCNH2 (Homo sapiens, UniProt Q12809). The data set is described as §1.
Sequence of Voltage-gated inwardly rectifying potassium channel KCNH2 (Q12809 whole entry): as above
Conditions: not given
In turn, `COc1c(N2CCNC(C)C2)c(F)cc2c(=O)c(C(=O)O)cn(C3CC3)c12` (stereo not given) [GATIFLOXACIN] had a half-maximal inhibitory concentration (IC50) of 129 µM.

Staying with this data set, now noted: human, MCF7 cells.
`C[C@@H]1CN(c2c(F)c(N)c3c(=O)c(C(=O)O)cn(C4CC4)c3c2F)C[C@H](C)N1` [SPARFLOXACIN] registered a negative-log IC50 (pIC50) of 4.58.

Still in this data set, the particulars now being: human, mcf7.
The compound `CN(c1nccc(=O)[nH]1)C1CCN(c2nc3ccccc3n2Cc2ccc(F)cc2)CC1` [MIZOLASTINE] yielded a negative logarithm of the IC50 (pIC50) of 6.45.
